Read-outs that look alike come from different tables or passages of the source.

This is an account of results in patent US11548855B2, “Pyrazole amide compound and application thereof, and fungicide” (Shandong United Pesticide Industry Co. Ltd., priority 2017, dated 2023).

What all share (assay type): in vivo
Assay [1] concerns rice sheath blight fungi (Rhizoctonia solami). As to the kind of experiment: Greenhouse pot test, rice sheath blight. Here is the method: (§1) The compounds provided by the present disclosure and some control compounds were tested by the same methods in the Test example 1, except that the effective concentrations of the compounds in this Test example are shown in Table 2.
In addition, the test method for rice sheath blight as following steps:
The potted rice seedling with uniform growth was selected, and dried in the shade for 24 h after spray treatment, then inoculated 3 blocks of 0.25 cm^2 rice sheath blight fungi (Rhizoctonia solami) at the base of seedling by clamp inoculation bacterium block method. The test materials inoculated were moved into greenhouse (temperature: lighting 28° C., dark 25° C., relative humidity 95%), after 7 days, investigate 5 leaves of per block treatment, the grading investigation was carried out according to the disease incidence condition of sheaths and leaves of rice, “Guidelines for the field efficacy trials of pesticides” was adopted as the grading standard, the disease index was calculated according to the grading standard, and the control effect in a unit of % was calculated according to disease index.

Assay [2] has as its system corn rust (Puccinia sorghi). As to the kind of experiment: Greenhouse pot test, corn rust. Conditions: Puccinia sorghi, 168 h, read-out: Control effect (%) Corn rust; for pest or weed control at 6.25 µg/mL: 6.25 mg/L; for pest or weed control at 25 µg/mL: 25 mg/L; for pest or weed control at 100 µg/mL: 100 mg/L; for pest or weed control at 1.5625 µg/mL: 1.5625 mg/L; for pest or weed control at 3.125 µg/mL: 3.1250 mg/L. Here is the method: (§2) Test method: each of the test compounds in Table 1 was dispensed to 5 wt % emulsifiable concentrate (hereinafter referred to as 5% EC). The greenhouse pot test was used in each experiment, and the effective concentrations of each compound were illustrated in Table 1.
Corn rust: two-three leaf stage potted corn seedling with uniform growth was selected and made foliar spray treatment with 5% EC, the blank control sprayed with clean water was additionally arranged, three replicates were carried out. After 24 h, the leaves of the host plants were inoculated with sporangial suspensions of the fungi corn rust (Puccinia sorghi), the plants were stored in humidity chamber (temperature: lighting 25° C., dark 20° C., relative humidity 95-100%) and then transferred to greenhouse (25±1° C.) 24 h after infection. After 7 days, the screening results were investigated according to the disease incidence condition of blank control.
(§3) The investigation method: “Guidelines for the field efficacy trials of pesticides” was adopted as the grading standard, and the control effect in a unit of % was calculated based on the disease index. Disease index=Σ(number of diseased leaves at each grade×relative grade value)×100/(total number of leaves×9); Control effect (%)=(disease index of control−disease index of treated)×100/disease index of control;
as §1

For assay [3], the system named is soybean rust (Phakopsora pacchyrhizi Sydow). As to the kind of experiment: Greenhouse pot test, soybean rust. Conditions: Glycine max, 168 h, read-out: Control effect (%) Soybean rust; for pest or weed control at 6.25 µg/mL: 6.25 mg/L; for pest or weed control at 25 µg/mL: 25 mg/L; for pest or weed control at 100 µg/mL: 100 mg/L; for pest or weed control at 1.5625 µg/mL: 1.5625 mg/L; for pest or weed control at 3.125 µg/mL: 3.1250 mg/L. Here is the method: as §2
Soybean rust: two-leaf stage potted soybean seedling with uniform growth was selected and made foliar spray treatment with 5% EC, the blank control sprayed with clean water was additionally arranged, three replicates were carried out. After 24 h, the leaves of the host plants were inoculated with sporangial suspensions of the fungi soybean rust (Phakopsora pacchyrhizi Sydow), the plants were stored in humidity chamber (temperature 20-25° C., relative humidity>95%) and then transferred to greenhouse (25±1° C.) 8-16 h after infection. After 7 days, the screening results were investigated according to the disease incidence condition of blank control.
as §3, §1

The subject of assay [4] is wheat powdery mildew (Erysiphe graminis). As to the kind of experiment: Greenhouse pot test, wheat powdery mildew. Conditions: Blumeria graminis, 168 h, read-out: Control effect (%) Wheat powdery mildew; for pest or weed control at 6.25 µg/mL: 6.25 mg/L; for pest or weed control at 25 µg/mL: 25 mg/L; for pest or weed control at 100 µg/mL: 100 mg/L; for pest or weed control at 1.5625 µg/mL: 1.5625 mg/L; for pest or weed control at 3.125 µg/mL: 3.1250 mg/L.
Excerpt: as §2
Wheat powdery mildew: two-leaf stage potted wheat seedling with uniform growth was selected and made foliar spray treatment with 5% EC, the blank control sprayed with clean water was additionally arranged, three replicates were carried out. After 24 h, the leaves of the host plants were inoculated by shake-down method with sporangial suspensions of the fungi wheat powdery mildew (Erysiphe graminis), the plants were stored in a greenhouse (25±1° C.). After 7 days, the screening results were investigated according to the disease incidence condition of blank control.
as §3, §1

Another assay has as its system cucumber powdery mildew. As to the kind of experiment: Greenhouse pot test, cucumber powdery mildew. Conditions: for pest or weed control at 6.25 µg/mL / pest or weed control at 25 µg/mL / pest or weed control at 100 µg/mL: Cucumis sativus, 192 h, read-out: Control effect (%) Cucumber powdery mildew. Here is the method: as §2
Cucumber powdery mildew: cucumber seedling in a true leaf period with uniform growth was selected, and dried in the shade for 24 h after spray treatment. Fresh cucumber powdery mildew spores on the cucumber leaves were collected and washed, and filtered through a double gauze to prepare a spores suspension with concentration of about 100,000/mL, then spray inoculation was applied. The test materials inoculated were moved into a greenhouse (lighting 21-23° C.), after 8 days, the grading investigation was carried out according to the disease incidence condition of blank control, and the control effect in a unit of % was calculated according to disease index.
as §3, §1

With `Fc1ccc([C@]2(Cn3cncn3)O[C@H]2c2ccccc2Cl)cc1` (racemic) [Epoxiconazole], the “Control effect (%) Rice sheath blight” value in assay [1] (0.625 mg/L) was 30%; in assay [1] (2.5 mg/L), 70%; in assay [1] (10 mg/L) it was 100%.
Take `Cn1nc(C(F)F)c(C(=O)Nc2ccccc2Oc2ccc(C(F)(F)F)cc2Br)c1F` [Compound 2]: the pest or weed control at 6.25 µg/mL in assay [2] was found to be 98%; in assay [3], 96%; in assay [4], 70%; in the assay with cucumber powdery mildew (greenhouse pot, 6.25 mg/L), 45%. Also, the pest or weed control at 25 µg/mL in assay [2] amounted to 100%; in assay [3], 100%; in assay [4] it was 75%; in the assay with cucumber powdery mildew (greenhouse pot, 25 mg/L), 55%. The pest or weed control at 100 µg/mL in assay [2] was found to be 100%; in assay [3] it was 100%; in assay [4], 85%; with cucumber powdery mildew (greenhouse pot, 100 mg/L), 88%.
Consider `Cn1nc(C(F)F)c(C(=O)Nc2ccccc2Oc2ccc(C(F)(F)F)cc2I)c1F` [Compound 3], for which the pest or weed control at 6.25 µg/mL in assay [2] is 75%; in assay [3], 85%; in assay [4], 65%; with cucumber powdery mildew (greenhouse pot, 6.25 mg/L), 45%. In addition, the pest or weed control at 25 µg/mL in assay [2] came to 100%; in assay [3], 100%; in assay [4] it was 80%; in the assay on cucumber powdery mildew (greenhouse pot, 25 mg/L), 70%. Also, the pest or weed control at 100 µg/mL amounted to 100% in assay [2]; 100% in assay [3]; 80% in assay [4]; 95% with cucumber powdery mildew (greenhouse pot, 100 mg/L).
On to `Cn1cc(C(=O)Nc2ccccc2Oc2cc(C(F)(F)F)ccc2C(F)(F)F)c(C(F)F)n1` [Compound 5], for which, in assay [2], the pest or weed control at 6.25 µg/mL amounted to 70%, the pest or weed control at 25 µg/mL worked out at 75% and the pest or weed control at 100 µg/mL was 85%. In assay [3], the pest or weed control at 6.25 µg/mL was determined as 95%, the pest or weed control at 25 µg/mL was determined as 98% and the pest or weed control at 100 µg/mL came to 100%. In assay [4], the pest or weed control at 6.25 µg/mL was 10%, the pest or weed control at 25 µg/mL amounted to 40% and the pest or weed control at 100 µg/mL turned out to be 50%.
As to `Cn1nc(C(F)F)c(C(=O)Nc2ccccc2Oc2ccc(C(F)(F)F)cc2C(F)(F)F)c1F` [Compound 6], the pest or weed control at 6.25 µg/mL is 98% in assay [2]; 90% in assay [3]; 85% in assay [4]; 50% in the assay on cucumber powdery mildew (greenhouse pot, 6.25 mg/L). Besides, the pest or weed control at 25 µg/mL in assay [2] came out at 100%; in assay [3], 100%; in assay [4] it was 90%; with cucumber powdery mildew (greenhouse pot, 25 mg/L), 75%. Also, the pest or weed control at 100 µg/mL in assay [2] is 100%; in assay [3] it was 100%; in assay [4], 92%; in the assay with cucumber powdery mildew (greenhouse pot, 100 mg/L) it was 98%.
Take `Cn1cc(C(=O)Nc2ccccc2Oc2ccc(Cl)cc2Cl)c(C(F)F)n1` [Compound 7]: the results for the pest or weed control at 1.5625 µg/mL in assay [2], in assay [3] and in assay [4] were 50%, 90% and 0%, respectively. The pest or weed control at 3.125 µg/mL in assay [2] amounted to 60%; in assay [3] it was 100%; in assay [4], 50%. Further, the pest or weed control at 6.25 µg/mL in assay [2] is 90%; in assay [3], 96%; in assay [4], 60%; with cucumber powdery mildew (greenhouse pot, 6.25 mg/L) it was 30%. The pest or weed control at 25 µg/mL in assay [2] is 95%; in assay [3], 98%; in assay [4], 75%; with cucumber powdery mildew (greenhouse pot, 25 mg/L), 60%. Besides, the pest or weed control at 100 µg/mL in assay [2] worked out at 100%; in assay [3], 100%; in assay [4], 90%; in the assay on cucumber powdery mildew (greenhouse pot, 100 mg/L) it was 89%.
In the case of `Cn1cc(C(=O)Nc2ccccc2Oc2ccc(C(F)(F)F)cc2Cl)c(C(F)F)n1` [Compound 8], the pest or weed control at 1.5625 µg/mL in assay [2] was 85%; in assay [3], 98%; in assay [4], 70%. The pest or weed control at 3.125 µg/mL in assay [2] came out at 98%; in assay [3], 100%; in assay [4], 90%. Further, the pest or weed control at 6.25 µg/mL in assay [2] turned out to be 95%; in assay [3] it was 99%; in assay [4], 65%; in the assay on cucumber powdery mildew (greenhouse pot, 6.25 mg/L), 40%. For the same compound, the pest or weed control at 25 µg/mL in assay [2] was found to be 99%; in assay [3] it was 100%; in assay [4], 75%; with cucumber powdery mildew (greenhouse pot, 25 mg/L) it was 60%. The pest or weed control at 100 µg/mL was found to be 100% in assay [2]; 100% in assay [3]; 94% in assay [4]; 95% in the assay on cucumber powdery mildew (greenhouse pot, 100 mg/L).
On to `CC1COC(Cn2cncn2)(c2ccc(Oc3ccc(Cl)cc3)cc2Cl)O1` (stereo not drawn) [Difenoconazole], for which the pest or weed control at 100 µg/mL in the assay on cucumber powdery mildew (greenhouse pot, 100 mg/L) amounted to 80%.
For the compound `CCCCc1c(C)nc(NCC)[nH]c1=O` [Ethirimol], the pest or weed control at 100 µg/mL with cucumber powdery mildew turned out to be 100%.
On to `Cn1cc(C(=O)Nc2ccccc2-c2cc(F)c(F)c(F)c2)c(C(F)F)n1` [Fluxapyroxad], for which the “Control effect (%) Cucumber powdery mildew” value stood at 55% in the assay on cucumber powdery mildew (greenhouse pot, 1.5625 mg/L); 95% with cucumber powdery mildew (greenhouse pot, 6.25 mg/L); 100% with cucumber powdery mildew (greenhouse pot, 25 mg/L); 100% in the assay with cucumber powdery mildew (greenhouse pot, 100 mg/L).
